The test system of one series is HIV-1 IIIB. In words: 50% HS-Rezazurin: antiviral assay in the presence of 50% human serum, MT-4 cells, resazurin cell viability. Type of series: cell-based. The procedure: For the Antiviral assay in the presence of 50% human serum MT-4 cells were infected with HIV-1 IIIB at a MOI of 0.001 to 0.01 CCID50/cell in RPMI1640 medium. Following 1 h of incubation, cells were washed and plated into a 96-well plate containing serial dilutions of compound in the presence of 10% fetal calf serum (FCS), or 50% human serum. After 4 days incubation, the EC50 in the presence of 50% human serum was determined by a cell viability assay using resazurin.
The last column lists the results for the wild-type strain IIB in the presence of 50% human serum MT-4 cells.

In another series the test system is mock-infected MT4 cells. In words: General toxicity assay on mock-infected MT4 cells with CMV-EGFP reporter (CC50). The format is cell-based.
A further series concerns HIV-1 wild-type strain. In words: General antiviral assay, cell-based virus replication in MT4-LTR-EGFP cells, wild-type strain. The settings on record: wild-type strain IIIB, MT4-LTR-EGFP cells. Here is the method:
(§1) MT4-LTR-EGFP cells were obtained by transfecting MT4 cells with a selectable construct encompassing the sequences coding for the HIV long terminal repeat (LTR) as a promoter for the expression of enhanced green fluorescent protein (EGFP) and subsequent selection of permanently transfected cells.
(§2) The antiviral activity on different HIV-1 strains, was determined in a cell-based virus replication assay. Here MT4-LTR-EGFP cells (150,000 cells/ml) are infected (multiplicity of infection [MOI] of 0.0025) in the presence or absence of different inhibitor concentrations. Two methodologies for read-out were used, either quantification of GFP-fluoresence on day 3 post-infection, or quantification of cell-viability using rezazurin (as described by Fields, R. D., and M. V. Lancaster (1993) Am. Biotechnol. Lab. 11:48-50) on day 4 post infection.

Series [1] deals with HIV-1 Strain A (M046I, I084V). In words: microbe, parasite or virus in culture. Type of series: cell-based. The settings on record: clinical isolate Strain A; read-out: A EC50. The procedure: as §1, §2
(§3) In the following Table, Strains A, B, and C are clinical isolates that include the following protease inhibitor resistance mutations in the protease domain (background mutations are not mentioned).

Series [2] deals with HIV-1 Strain C (G048G/V, V082A). Description: microbe, parasite or virus in culture. The format is cell-based. As to conditions: clinical isolate Strain C; read-out: C EC50. The procedure:
as §1, §2, §3

In series [3] the test system is HIV-1 Strain B (M046I, I050V). In words: microbe, parasite or virus in culture. As to conditions: clinical isolate Strain B; read-out: B EC50. The format is cell-based. Here is the method:
as §1, §2, §3

The mark [4] stands for this setting: MT4LTR cells, read-out: TOX-MT4LTR (CC50).
[5] abbreviates: mock-infected MT4 cells with CMV-EGFP reporter, read-out: TOX-MT4CMV (CC50).

Read-outs that look alike come from different tables or passages of the source.

One may read the EC50 as the concentration giving half of the maximal effect. As a reminder, the CC50 is the concentration that lowers cell viability or growth by half.

Turning to `COc1cccc(C[C@H](C[C@H](O)[C@H](Cc2ccc(-c3ccc(OC)nc3)cc2)NC(=O)O[C@H]2CO[C@H]3OCC[C@H]32)C(=O)N[C@H]2c3cc(Cl)ccc3OC[C@H]2O)c1` [Compound 70], the EC50 in the series with HIV-1 IIIB came out at 11.4 nM; in the series with HIV-1 wild-type strain, 2.6 nM; in series [1], 1.6 nM; in series [2], 1.2 nM; in series [3], 1.6 nM. The CC50 in the series on mock-infected MT4 cells (setting [4]) and in the series with mock-infected MT4 cells (setting [5]) was greater than 32000 nM throughout.
With `COC(=O)N[C@H](C(=O)N[C@@H](Cc1ccc(-c2ccc(OC)nc2)cc1)[C@@H](O)C[C@@H](Cc1cccc(F)c1)C(=O)N[C@H]1c2ccc(F)cc2OC[C@H]1O)C(C)(C)C` [Compound 85], the EC50 in the series with HIV-1 IIIB stood at 17.5 nM; in the series on HIV-1 wild-type strain it was 2.9 nM; in series [1], 3 nM; in series [2], 1.1 nM; in series [3] it was 1.3 nM. In addition, the CC50 in the series on mock-infected MT4 cells (setting [4]) and in the series on mock-infected MT4 cells (setting [5]) was greater than 32000 nM throughout.
Regarding `COC(=O)N[C@H](C(=O)N[C@@H](Cc1ccc(-c2ccc(OC)nc2)cc1)[C@@H](O)C[C@@H](Cc1cccc(F)c1)C(=O)N[C@H]1c2cccc(F)c2OC[C@H]1O)C(C)(C)C` [Compound 40], the EC50 with HIV-1 IIIB turned out to be 11.2 nM; with HIV-1 wild-type strain it was 2.4 nM; in series [1] it was 1.6 nM; in series [2], 0.8 nM; in series [3], 1 nM. In addition, the CC50 with mock-infected MT4 cells (setting [4]) and in the series with mock-infected MT4 cells (setting [5]) was greater than 32000 nM throughout.
`CCc1ncc(-c2ccc(C[C@H](NC(=O)[C@@H](NC(=O)OC)C(C)(C)C)[C@@H](O)C[C@@H](Cc3ccccc3F)C(=O)N[C@H](C(=O)NC)C(C)(C)C)cc2)s1` [Compound 84]: the concentration giving a half-maximal response (EC50) came out at 28 nM with HIV-1 IIIB; 6.4 nM in the series on HIV-1 wild-type strain; 4.7 nM in series [1]; 2.4 nM in series [2]; 3.3 nM in series [3]. Moreover, the CC50 with mock-infected MT4 cells (setting [5]) was greater than 32000 nM.
For the compound `COC(=O)NC(C(=O)NC(Cc1ccc(-c2ccc(OC)nc2)cc1)C(O)CC(Cc1ccccc1F)C(=O)NC1CCCCC1O)C(C)(C)C` (stereo not shown) [Compound 100], the EC50 in the series on HIV-1 IIIB was determined as 5.9 nM; with HIV-1 wild-type strain, 1.8 nM; in series [1], 1.8 nM; in series [2] it was 0.8 nM; in series [3], 0.7 nM. Also, the CC50 in the series on mock-infected MT4 cells (setting [4]) was greater than 32000 nM.
Consider `COCCNC(=O)[C@@H](NC(=O)[C@H](Cc1cccc(F)c1)C[C@H](O)[C@H](Cc1ccc(-c2ccc(OC)nc2)cc1)NC(=O)[C@@H](NC(=O)OC)C(C)(C)C)C(C)(C)C` [Compound 92], for which the EC50 with HIV-1 IIIB worked out at 8.4 nM; in the series with HIV-1 wild-type strain it was 2.6 nM; in series [1] it was 4.2 nM; in series [2], 2.9 nM; in series [3], 1.8 nM. The CC50 in the series on mock-infected MT4 cells (setting [4]) and in the series with mock-infected MT4 cells (setting [5]) was greater than 32000 nM in each case.
As for `COC(=O)NC(C(=O)NC(Cc1ccc(-c2ccc(N(C)C)nc2)cc1)C(O)CC(Cc1cccc(Cl)c1)C(=O)NC1c2cc(Cl)ccc2OCC1O)C(C)(C)C` (stereo not shown) [Compound 5], the EC50 worked out at 28.6 nM with HIV-1 IIIB; 4.7 nM in the series with HIV-1 wild-type strain; 5.4 nM in series [1]; 5.1 nM in series [2]; 4.4 nM in series [3]. In addition, in the series with mock-infected MT4 cells (setting [5]), the CC50 was greater than 32000 nM.
With `COC(=O)NC(C(=O)NC(Cc1ccc(-c2cnc(OC)cn2)cc1)C(O)CC(Cc1ccccc1F)C(=O)NC1c2cc(Cl)ccc2OCC1O)C(C)(C)C` (stereo not shown) [Compound 23], the EC50 with HIV-1 IIIB is 12.3 nM; in the series with HIV-1 wild-type strain, 3 nM; in series [1] it was 3.7 nM; in series [2], 2 nM; in series [3], 2.4 nM. Moreover, the CC50 in the series with mock-infected MT4 cells (setting [5]) was 19000 nM.
Consider `COC(=O)NC(C(=O)NC(Cc1ccc(-c2cnc(C)s2)cc1)C(O)CC(Cc1cccc(Cl)c1)C(=O)NC1c2cc(Cl)ccc2OCC1O)C(C)(C)C` (stereo not shown) [Compound 6], for which the EC50 is 15.2 nM in the series with HIV-1 IIIB; 3.2 nM with HIV-1 wild-type strain; 3.9 nM in series [1]; 1.5 nM in series [2]; 2.7 nM in series [3]. In addition, the CC50 in the series on mock-infected MT4 cells (setting [5]) was greater than 32000 nM.
`COc1ccc(-c2ccc(C[C@H](NC(=O)O[C@H]3CO[C@H]4OCC[C@H]43)[C@@H](O)C[C@@H](Cc3ccccc3F)C(=O)N[C@H]3[C@H](C)CCC[C@H]3O)cc2)cn1` [Compound 82]: the EC50 came to 5.1 nM in the series with HIV-1 IIIB; 1.8 nM with HIV-1 wild-type strain; 1.1 nM in series [1]; 0.7 nM in series [2]; 0.8 nM in series [3]. Moreover, the CC50 in the series on mock-infected MT4 cells (setting [4]) was greater than 27000 nM.
Take `CN(C)c1ccc(-c2ccc(C[C@H](NC(=O)O[C@H]3CO[C@H]4OCC[C@H]43)[C@@H](O)C[C@@H](Cc3ccccc3F)C(=O)N[C@H]3c4cc(F)ccc4OC[C@H]3O)cc2)cn1` [Compound 68]: the EC50 was determined as 9.4 nM with HIV-1 IIIB; 3 nM with HIV-1 wild-type strain; 2.2 nM in series [1]; 1.3 nM in series [2]; 1.5 nM in series [3]. Besides, in the series with mock-infected MT4 cells (setting [5]), the CC50 was greater than 32000 nM.
Take `COc1ccc(-c2ccc(C[C@H](NC(=O)O[C@H]3CO[C@H]4OCC[C@H]43)[C@@H](O)C[C@@H](Cc3ccccc3F)C(=O)N[C@H]3c4ccsc4CC[C@H]3O)cc2)cn1` [Compound 74]: the EC50 with HIV-1 IIIB is 3.5 nM; in the series with HIV-1 wild-type strain, 0.9 nM; in series [1] it was 0.8 nM; in series [2], 0.4 nM; in series [3], 0.6 nM. The CC50 in the series on mock-infected MT4 cells (setting [4]) was greater than 32000 nM.
In the case of `COC(=O)N[C@H](C(=O)N[C@@H](Cc1ccc(-c2cncc(N(C)C)n2)cc1)[C@@H](O)C[C@@H](Cc1ccccc1F)C(=O)N[C@H]1c2cc(Cl)ccc2OC[C@H]1O)C(C)(C)C` [Compound 25], the EC50 in the series with HIV-1 IIIB came out at 26.4 nM; with HIV-1 wild-type strain, 4.9 nM; in series [1], 4.6 nM; in series [2], 2.5 nM; in series [3], 2.7 nM. Besides, the CC50 in the series on mock-infected MT4 cells (setting [5]) was greater than 32000 nM.
As for `COC(=O)NC(C(=O)NC(Cc1ccc(-c2ccc(N(C)C)nc2)cc1)C(O)CC(Cc1cccc(Cl)c1)C(=O)NC1c2ccccc2OCC1O)C(C)(C)C` (stereo not shown) [Compound 2], the EC50 in the series on HIV-1 IIIB was 19.7 nM; in the series on HIV-1 wild-type strain, 3 nM; in series [1], 3.3 nM; in series [2], 1.1 nM; in series [3], 2.2 nM. Further, in the series on mock-infected MT4 cells (setting [5]), the 50% cytotoxic concentration (CC50) is greater than 32000 nM.
For the compound `COCCNC(=O)[C@@H](NC(=O)[C@H](Cc1ccccc1Cl)C[C@H](O)[C@H](Cc1ccc(-c2ccc(OC)nc2)cc1)NC(=O)[C@@H](NC(=O)OC)C(C)(C)C)C(C)(C)C` [Compound 98], the EC50 is 11.2 nM in the series on HIV-1 IIIB; 2.1 nM in the series with HIV-1 wild-type strain; 3.7 nM in series [1]; 2.2 nM in series [2]; 1 nM in series [3]. Besides, in the series on mock-infected MT4 cells (setting [4]), the CC50 is greater than 32000 nM.
`COC(=O)NC(C(=O)NC(Cc1ccc(-c2ccc(N(C)C)nc2)cc1)C(O)CC(Cc1cccc(OC)c1)C(=O)NC1c2ccccc2OCC1O)C(C)(C)C` (stereo not shown) [Compound 15]: the EC50 with HIV-1 IIIB is 8.7 nM; in the series with HIV-1 wild-type strain, 2 nM; in series [1] it was 2.1 nM; in series [2], 1.3 nM; in series [3] it was 1.2 nM. For the same compound, the CC50 in the series on mock-infected MT4 cells (setting [5]) is greater than 32000 nM.
As for `COC(=O)N[C@H](C(=O)N[C@@H](Cc1ccc(-c2cc(C)nc(C)c2)cc1)[C@@H](O)C[C@@H](Cc1ccccc1F)C(=O)N[C@H]1c2cccc(Cl)c2OC[C@H]1O)C(C)(C)C` [Compound 54], the EC50 in the series on HIV-1 IIIB turned out to be 19.8 nM; with HIV-1 wild-type strain, 4.8 nM; in series [1] it was 2.7 nM; in series [2] it was 1.6 nM; in series [3], 2.1 nM. In addition, the CC50 in the series on mock-infected MT4 cells (setting [4]) is greater than 32000 nM.
